From US20150087673A1, “METHODS FOR USING AND BIOMARKERS FOR AMPK-ACTIVATING COMPOUNDS” (RIGEL PHARMACEUTICALS, INC., priority 2013, published 2015) come the findings set out here.

In this experiment the test system is AMPK. As to the kind of experiment: AMPK activation assay (enzyme-linked immunosorbent assay). In kind it is cell-based. An outline of the steps:
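Activator screen performed per well-known kit methods.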
As to `CC(=O)c1ccc(Oc2ccc(NC(=O)c3ccc(C(=O)N4CCC(S(=O)(=O)c5ccc(F)cc5)CC4)nc3)cn2)cc1` [Compound 473, N-(6-(4-acetylphenoxy)pyridin-3-yl)-6-(4-(4-fluorophenylsulfonyl)piperidine-1-carbonyl)nicotinamide], the EC50 fell in the range of 1000 to 5000 nM.

Take `COc1ccc(C(=O)C2CCN(C(=O)c3ccc(C(=O)Nc4ccc(Oc5ccc(C(C)=O)cc5)nc4)cn3)CC2)cc1` [Compound 462, N-(6-(4-acetylphenoxy)pyridin-3-yl)-6-(4-(4-methoxybenzoyl)piperidine-1-carbonyl)nicotinamide]: the half-maximal effective concentration (EC50) is less than 500 nM.

In turn, `CC(=O)Nc1cccc(OC2CCN(C(=O)c3ccc(C(=O)Nc4ccc(Oc5ccc(F)cc5)nc4)cn3)CC2)c1` [Compound 414, 6-(4-(3-acetamidophenoxy)piperidine-1-carbonyl)-N-(6-(4-fluorophenoxy)pyridin-3-yl)nicotinamide] came in with an EC50 of 1000 to 5000 nM.

Regarding `N#Cc1ccc(CN2CCC(NC(=O)c3ccc(C(=O)N4CCN(CC5CCCCC5)CC4)cn3)CC2)cc1` [Compound 95, N-(1-(4-cyanobenzyl)piperidin-4-yl)-5-(4-(cyclohexylmethyl)piperazine-1-carbonyl)picolinamide], the EC50 is less than 500 nM.

In the case of `COc1ccc(CN2CCC(NC(=O)c3ccc(C(=O)N4CCN(Cc5ccc(F)cc5)CC4)cn3)CC2)cc1` [Compound 117, 5-(4-(4-fluorobenzyl)piperazine-1-carbonyl)-N-(1-(4-methoxybenzyl)piperidin-4-yl)picolinamide], the EC50 was less than 500 nM.

Compound `N#Cc1ccc(CN2CCC(NC(=O)c3ccc(C(=O)Nc4cccc(Cc5ccccc5)c4)cn3)CC2)cc1` [Compound 5, N^2-(1-(4-cyanobenzyl)piperidin-4-yl)-N^5-(3-benzylphenyl)pyridine-2,5-dicarboxamide] yielded an EC50 of 500 to 1000 nM.

Compound `N#Cc1ccc(CN2CCC(NC(=O)c3ccc(C(=O)N4CCC(Cc5ccccc5)CC4)cn3)CC2)cc1` [Compound 124, 5-(4-benzylpiperidine-1-carbonyl)-N-(1-(4-cyanobenzyl)piperidin-4-yl)picolinamide] gave an EC50 of less than 500 nM.

On to `N#Cc1ccc(CN2CCC(NC(=O)c3cnc(C(=O)N4CCC(C(=O)c5ccc(N6CCCC6)cc5)CC4)cn3)CC2)cc1` [Compound 219, N-(1-(4-cyanobenzyl)piperidin-4-yl)-5-(4-(4-(pyrrolidin-1-yl)benzoyl)piperidine-1-carbonyl)pyrazine-2-carboxamide], for which the EC50 was less than 500 nM.

Compound `COc1ccc(C(=O)C2CCN(C(=O)c3ccc(C(=O)N(C)C4CCN(Cc5ccc(OC(F)(F)F)cc5)CC4)cn3)CC2)cc1` [Compound 483, 6-(4-(4-methoxybenzoyl)piperidine-1-carbonyl)-N-methyl-N-(1-(4-(trifluoromethoxy)benzyl)piperidin-4-yl)nicotinamide] showed an EC50 of less than 500 nM.

On to `N#Cc1ccc(CN2CCC(NC(=O)c3ccc(C(=O)N4CCN(Cc5ccncc5)CC4)cn3)CC2)cc1` [Compound 103, N-(1-(4-cyanobenzyl)piperidin-4-yl)-5-(4-(pyridin-4-ylmethyl)piperazine-1-carbonyl)picolinamide], for which the EC50 was less than 500 nM.

Take `N#Cc1ccc(CN2CCC(NC(=O)c3ccc(C(=O)NC4CCN(Cc5ccc(C#N)cc5)CC4)nn3)CC2)cc1` [Compound 386, N3,N6-bis(1-(4-cyanobenzyl)piperidin-4-yl)pyridazine-3,6-dicarboxamide]: the EC50 is greater than 10000 nM.

`COc1ccc(CN2CCC(N(C)C(=O)c3ccc(C(=O)N4CCC(C(=O)c5ccc(OC)cc5)CC4)nc3)CC2)cc1` [Compound 484, 6-(4-(4-methoxybenzoyl)piperidine-1-carbonyl)-N-(1-(4-methoxybenzyl)piperidin-4-yl)-N-methylnicotinamide] had an EC50 of less than 500 nM.

Take `CS(=O)(=O)c1ccc(C(=O)C2CCN(C(=O)c3ccc(C(=O)Nc4ccc(Oc5ccc(F)cc5)nc4)cn3)CC2)cc1` [Compound 224, N-(6-(4-fluorophenoxy)pyridin-3-yl)-6-(4-(4-(methylsulfonyl)benzoyl)piperidine-1-carbonyl)nicotinamide]: the concentration for a half-maximal effect (EC50) is less than 500 nM.

In turn, `N#Cc1ccc(CN2CCC(NC(=O)c3ccc(C(=O)N4CCC(C(=O)c5ccc(N6CCOCC6)cc5)CC4)cn3)CC2)cc1` [Compound 376, N-(1-(4-cyanobenzyl)piperidin-4-yl)-5-(4-(4-morpholinobenzoyl)piperidine-1-carbonyl)picolinamide] yielded an EC50 of less than 500 nM.

In turn, `N#Cc1ccc(OC2CCN(C(=O)c3ccc(C(=O)NC4CCN(Cc5ccc(F)cc5)CC4)nc3)CC2)cc1` [Compound 200, 5-(4-(4-cyanophenoxy)piperidine-1-carbonyl)-N-(1-(4-fluorobenzyl)piperidin-4-yl)picolinamide] registered an EC50 of less than 500 nM.

`CC(=O)c1ccc(Oc2ccc(NC(=O)c3ccc(C(=O)N4CCC(Oc5ccc(S(C)(=O)=O)cc5)CC4)cn3)cn2)cc1` [Compound 259, N-(6-(4-acetylphenoxy)pyridin-3-yl)-5-(4-(4-(methylsulfonyl)phenoxy)piperidine-1-carbonyl)picolinamide] displayed a concentration for a half-maximal effect (EC50) of less than 500 nM.

With `N#Cc1ccc(CN2CCC(NC(=O)c3ccc(C(=O)N4CCC(C(=O)c5ccc(F)c(F)c5)CC4)cn3)CC2)cc1` [Compound 281, N-(1-(4-cyanobenzyl)piperidin-4-yl)-5-(4-(3,4-difluorobenzoyl)piperidine-1-carbonyl)picolinamide], the EC50 was less than 500 nM.

With `COc1ccc(OC2CCN(C(=O)c3ccc(C(=O)NC4CCN(Cc5ccc(N6CCCC6)cc5)CC4)nc3)CC2)cc1` [Compound 195, 5-(4-(4-methoxyphenoxy)piperidine-1-carbonyl)-N-(1-(4-(pyrrolidin-1-yl)benzyl)piperidin-4-yl)picolinamide], the EC50 was less than 500 nM.

Regarding `N#Cc1ccc(CN2CCC(NC(=O)c3ccc(N4CCN(Cc5ccccc5)CC4)cn3)CC2)cc1` [Compound 110, 5-(4-benzylpiperazin-1-yl)-N-(1-(4-cyanobenzyl)piperidin-4-yl)picolinamide], the EC50 lay in the range of 1000 to 5000 nM.

Turning to `N#Cc1ccc(CN2CCC(NC(=O)c3ccc(C(=O)N4CCN(C(=O)c5ccc(C(=O)NC6CCN(Cc7ccc(C#N)cc7)CC6)nc5)CC4)cn3)CC2)cc1` [Compound 75, 5,5′-(piperazine-1,4-diylbis(oxomethylene))bis(N-(1-(4-cyanobenzyl)piperidin-4-yl)picolinamide)], the EC50 was in the range of 1000 to 5000 nM.

As for `N#Cc1ccc(CN2CCC(NC(=O)c3ccc(N4CCC(Oc5ccc(C(F)(F)F)cc5)CC4)nn3)CC2)cc1` [Compound 361, N-(1-(4-cyanobenzyl)piperidin-4-yl)-6-(4-(4-(trifluoromethyl)phenoxy)piperidin-1-yl)pyridazine-3-carboxamide], the 50% effective concentration (EC50) is less than 500 nM.

Regarding `O=C(NC1CCN(Cc2ccc(OC(F)(F)F)cc2)CC1)c1ccc(C(=O)N2CCC(Oc3ccc(S(F)(F)(F)(F)F)cc3)CC2)nc1` [Compound 494, 6-(4-(4-(pentafluorosulfanyl)phenoxy)piperidine-1-carbonyl)-N-(1-(4-(trifluoromethoxy)benzyl)piperidin-4-yl)nicotinamide], the concentration for a half-maximal effect (EC50) was less than 500 nM.

`O=C(NC1CCN(Cc2ccccc2)CC1)c1ccc(C(=O)N2CCN(Cc3ccccc3)CC2)cn1` [Compound 72, 5-(4-benzylpiperazine-1-carbonyl)-N-(1-benzylpiperidin-4-yl)picolinamide]: the EC50 is less than 500 nM.
